Data as given in PubChem BioAssay (NCI).
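How tested: cells in 96-well plates exposed to compound for 48 hours at five concentrations. GI50 = concentration required for 50% inhibition of growth. Definition used: TGI = concentration required for complete inhibition of growth.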 Where a SMILES comes first, the peptide text is derived from it. [ ]: non-standard residue; d: D form. pGlu = O=C1CC[CH](C(=O)O)N1; Thz = O=C(O)[CH]1CSCN1

Experiments:
Assay in all cases: NCI tumour cell line growth inhibition, 48 h
UACC-62 melanoma = tested on: UACC-62 melanoma
DLD-1 colon = tested on: DLD-1 colon
DMS 114 small cell lung = tested on: DMS 114 small cell lung
DMS 273 small cell lung = tested on: DMS 273 small cell lung
HOP-18 NSCLC = tested on: HOP-18 NSCLC
LXFL 529 NSCLC = tested on: LXFL 529 NSCLC
SNB-78 CNS = tested on: SNB-78 CNS
XF 498 CNS = tested on: XF 498 CNS
KM20L2 colon = tested on: KM20L2 colon
M19-MEL melanoma = tested on: M19-MEL melanoma
P388 leukemia = tested on: P388 leukemia
P388/ADR leukemia = tested on: P388/ADR leukemia
SN12K1 renal = tested on: SN12K1 renal

Compound	TGI (UACC-62 melanoma) [µM]	other results
Cc1ncn(-c2ccccc2O)c1C	> 100	
NS(=O)(=O)c1ccc(NC(=O)N/N=C/c2ccccc2[N+](=O)[O-])cc1	> 100	
Cc1nc(OCc2ccccc2)c2ncn(CCO)c2n1	> 100	
COC1OC2COC1(OCc1ccccc1)C1OC(C)(C)OC21 (centres undefined)	> 100	
Nc1ncnc2c1ncn2[C@H]1C=C[C@@H](NO)C1	> 100	
CC(C)(C)C1=C(Br)C(F)(C(C)(C)C)OP1(=O)c1ccccc1 (centres undefined)	29.3	
CC1C(C)(C)C23CC12C1(OCCO1)C3Br (centres undefined)	> 100	
S=C(NCc1ccccc1)Nc1sc(=NCc2ccccc2)nc2sc3c(c12)CCN(N1CCc2c(sc4nc(=NCc5ccccc5)sc(NC(=S)NCc5ccccc5)c24)C1)C3	> 75.2	
CCCn1cc2c(=O)[nH]c(SC)nc2n1		TGI (DLD-1 colon): > 100 µM; TGI (DMS 114 small cell lung): > 100 µM; TGI (DMS 273 small cell lung): > 100 µM; TGI (HOP-18 NSCLC): > 100 µM; TGI (LXFL 529 NSCLC): > 100 µM; TGI (SNB-78 CNS): > 100 µM; TGI (XF 498 CNS): 98.1 µM
C=C1C2CCC3C4(C)CCCC(C)(C(=O)O)C4CCC3(C2)C1OC(=O)/C(C)=C/C (centres undefined)	62.2	
FC1(F)ON2CCc3ccccc3C2[C@H]1c1ccccc1 (some centres undefined)	> 100	GI50 (UACC-62 melanoma): > 100 µM
C#C[C@]1(O)CC[C@H]2[C@@H]3CCC4=C/C(=N\OCCN5CCCCC5)CC[C@]4(C)[C@H]3CC[C@@]21C	10.7	
O=C(OC1=CCN(Br)C1=O)C1=C(O)C(=O)N(Br)C1	36.3	
Cc1ccc2nc3ccccc3c(C3C4C(=O)N(c5ccc(F)cc5)C(=O)C4ON3C(C(N)=O)c3ccccc3)c2c1 (centres undefined)	> 100	
Nc1nc(Cl)cc(NCC2(CCO)CCC2)n1	> 10	
COC(NC(=O)Nc1ccc(C)cc1)(C(F)(F)F)C(F)(F)F	> 100	
CCCCSC1=N/C(=C\c2ccccc2O)C(=O)N1	> 100	
C=C(/C=C/C=C(\C)CCC=C(C)C)[C@@H]1CC[C@]2([C@H](CCCO)/C(=C(/C)C=O)CC[C@]2(C)O)[C@@H]1O		TGI (DLD-1 colon): 38.7 µM; TGI (DMS 273 small cell lung): 27.9 µM; TGI (HOP-18 NSCLC): 60.4 µM; TGI (KM20L2 colon): > 100 µM; TGI (LXFL 529 NSCLC): 33.7 µM; TGI (SNB-78 CNS): 33.5 µM; TGI (XF 498 CNS): 32.8 µM
Cn1c(-c2ccco2)ccc1-c1ccc(C=O)o1	> 100	
COc1ccc(/C=C2\N=C(N3CCCC(CO)C3)NC2=O)cc1 (centres undefined)	> 100	
CCOC(=O)C12CCC(=O)N1N(C)c1ncccc1N2 (centres undefined)	> 100	
NCC(=O)Nc1ccccc1	> 100	
C[C@H](Nc1nc(N)c(N=O)c(=O)n1C)C(=O)O	> 10	

Compound	TGI (UACC-62 melanoma) [µM]	other results
COc1ccc(C(=O)/C=C/c2ccc(OCCCCCCCCCCOc3ccc(/C=C/C(=O)c4ccc(OC)cc4)cc3)cc2)cc1	> 100	
Cc1cn(C2CC(n3cc(Cn4ccc(=O)[nH]c4=O)nn3)C(CO)O2)c(=O)[nH]c1=O (centres undefined)	> 100	
Cc1ccc(S(=O)(=O)n2cc(C=O)c(-c3cn(S(=O)(=O)c4ccc(C)cc4)cc3-c3cn(S(=O)(=O)c4ccc(C)cc4)cc3C=O)c2)cc1	> 100	
CC1OC(OC2C(O)COC(OC3C(C)OC(OC4C(OC(=O)[C@]56CCC(C)(C)C[C@@H]5C5=CCC7[C@@]8(C)C[C@H](O)[C@H](OC9OC(CO)C(O)C(O)C9O)[C@@](C)(CO)[C@@H]8CC[C@@]7(C)[C@]5(C)CC6)OCC(O)C4O)C(O)C3O)C2O)C(O)C(O)C1O (some centres undefined)	40.1	
COc1ccc2[nH]cc(CCNC(=O)[C@H](Cc3ccc(O)cc3)NC(=O)[C@@H](NCC(F)(F)F)C(C)C)c2c1	> 100	
C(=N\c1nc2cc3sc(/N=C/c4ccccc4)nc3cc2s1)/c1ccccc1	> 100	
OC1NC2Nc3ccccc3NC2NC1O (centres undefined)	> 100	
O=C1CCC(C(=O)N2CSCC2C(=O)O)N1 (centres undefined) ([pGlu]-[Thz]-OH; configuration not given here)	> 100	
COc1ccc(/C=N\N(C)Cc2cccc3ccsc23)cc1	> 100	
CCOP(=O)(OCC)Oc1c(OC)c2[nH]c(C(=O)OC)cc2c2c(C(=O)O)c[nH]c12	> 100	
ClCc1nc2ccccc2[nH]1	> 100	
Cc1nc(-c2ccccc2)cn2c1nc1ccccc12	31.7	
CCOC(=O)c1c(O)cn2c1[nH]c1cccc3cccc2c31	> 100	
Cc1cc(N(CCC#N)CCC#N)ccc1/C(N=Nc1ccc([N+](=O)[O-])cc1)=N\NC(=O)c1cc(Cl)ccc1O	67.6	
COC(=O)C(Cc1c[nH]c2ccccc12)NC(=O)C(Cc1cnc[nH]1)NC(=O)C1CCC(=O)N1C(=O)OCc1ccccc1 (centres undefined)	> 100	
Cc1nc2c(c(N3CCN(C)CC3)n1)Cc1ccccc1-2	> 100	
O=C(Nc1ccccc1)N(CCN(Cc1ccccc1)C(=O)Nc1ccccc1)CCN(Nc1ccccc1)C(=O)Nc1ccccc1	> 100	
S=P1(Sc2ccccc2)Oc2ccc3ccccc3c2-c2c(ccc3ccccc23)O1	> 100	TGI (DLD-1 colon): > 100 µM; TGI (DMS 114 small cell lung): > 100 µM; TGI (DMS 273 small cell lung): > 100 µM; TGI (HOP-18 NSCLC): > 100 µM; TGI (KM20L2 colon): > 100 µM; TGI (M19-MEL melanoma): > 100 µM; TGI (P388 leukemia): > 100 µM; TGI (P388/ADR leukemia): > 100 µM; TGI (SN12K1 renal): > 100 µM; TGI (SNB-78 CNS): > 100 µM; TGI (XF 498 CNS): > 100 µM
CCn1c(SCC(=O)N/N=C2\SCC(=O)N2c2ccc(C)cc2)nc2ccccc2c1=O	29.1	
COC(=O)C1=C(C)NC(=O)N2[C@@H](CCOCc3ccccc3)CC[C@@H]12	> 50	
O=c1[nH]c(Nc2ccc(Br)c(C(F)(F)F)c2)nc2nc[nH]c12	61.6	
O=C(Cc1ccc2ccccc2c1)NCc1ccc(C(=O)NCCc2ccccc2)cc1	> 100	
CN(O)C(=O)CCC(NC(=O)CCC(N)C(=O)O)C(=O)NCC(=O)O (centres undefined)	> 100	

Compound	TGI (UACC-62 melanoma) [µM]	other results
COc1ccc(/[N+]([O-])=C/c2ccc(OC(=S)S)c(OC)c2)cc1	> 100	
c1ccc2c3c(ccc2c1)-c1[nH]ncc1CCO3	> 62.9	TGI (DLD-1 colon): > 100 µM; TGI (DMS 114 small cell lung): > 82.4 µM; TGI (DMS 273 small cell lung): > 100 µM; TGI (HOP-18 NSCLC): > 100 µM; TGI (KM20L2 colon): > 95.1 µM; TGI (M19-MEL melanoma): > 100 µM; TGI (P388 leukemia): > 100 µM; TGI (P388/ADR leukemia): > 100 µM; TGI (SN12K1 renal): > 79.8 µM; TGI (SNB-78 CNS): > 100 µM; TGI (XF 498 CNS): 79.8 µM
CCOP(=O)(CC(=O)C1CC1)OCC	> 100	
NC1=Nc2ccccc2Sc2nncn21	> 100	
COC(=O)C1CCC(=O)N1C(c1ccc(OC)cc1)c1cc(OC)c(OC)c(OC)c1 (centres undefined)	> 100	
O=[N+]([O-])c1ncc(N(CCO)CCO)s1	43.7	
CC(C)(C)OC(=O)NCC(CNC(=O)OC(C)(C)C)C(N)=O	> 100	
CC(NC(=O)C1CCC(=O)N1)C(=O)N1CCCC1C(N)=O (stereo not drawn) ([pGlu]-Ala-Pro-NH2; configuration not given here)	> 100	
CCOC(=O)CNC(=O)C(CCC(=O)N(C)O)NC(=O)CCC(N)C(=O)O (centres undefined)	> 100	
C=C1C(C(=O)OC)[C@H]1C(=O)OC (some centres undefined)	> 100	
COc1c2c(c3c(c1OC)c(=O)c1ccccc1n3C)OCO2	> 100	
CC(NC1=NCCO1)c1ccccc1Cl (centres undefined)	> 100	
Cc1c(NC(=S)Nc2ccc([N+](=O)[O-])cc2)c(=O)n(-c2ccccc2)n1C	> 100	
O=c1[nH]c(NCc2cccnc2)nc2nc[nH]c12	> 100	
COc1ccc2c(c1)c1c3c(ccc4ncn2c43)N(CCO)CCN=1	0.602	
CC(C)(C)c1ccc2c(c1)OP1(Oc3c(Cl)cc(Cl)c4cccnc34)(O2)Oc2ccc(C(C)(C)C)cc2O1	21.1	TGI (DLD-1 colon): 18.1 µM; TGI (DMS 114 small cell lung): 9.57 µM; TGI (DMS 273 small cell lung): 18.3 µM; TGI (HOP-18 NSCLC): 32.4 µM; TGI (KM20L2 colon): 14.6 µM; TGI (P388 leukemia): 2.61 µM; TGI (P388/ADR leukemia): 9.93 µM; TGI (SN12K1 renal): 19.6 µM; TGI (SNB-78 CNS): > 86.8 µM; TGI (XF 498 CNS): 26.7 µM
COc1ccc(C2CC(c3c(O)ccc4ccccc34)=NN2)cc1OC (centres undefined)	13.6	
CC(C)(C)c1cc(/C=C(\C#N)C2=NCCO2)cc(C(C)(C)C)c1O	17.1	
COc1ccc(S(=O)(=O)Nc2ccc(-c3csc(N4C(=O)/C(=C/c5ccccc5[N+](=O)[O-])N=C4c4ccccc4)n3)cc2)cc1Cl	> 100	
O=S(=O)(O)c1ccc(N=Nc2ccccc2)cc1	> 100	
O=P1(c2ccccc2)C(c2ccccc2)CCC1c1ccccc1 (centres undefined)	> 100	
C#CC1(O)CCC2[C@@H]3CCc4cc(Oc5nc(F)nc(-c6c(C)c(C(=O)OCC)n7ccccc67)n5)ccc4C3CC[C@@]21C (some centres undefined)	> 100	
CN(C)Cc1cc(Cl)c(O)c(CN(C)C)c1	> 100	
